Tests used:
blackgrass [1] = test: Test C preemergence; type: in vivo, Alopecurus myosuroides
Procedure, shortened: (§1)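 Visual injury score, 0–100 (100 = complete control), taken 10 days after treatment relative to untreated controls. Pre: directed spray onto soil over sown seeds. Post: foliar spray at one- to two-leaf stage, 2–10 cm. Solvent/surfactant formulation; loam–sand soil; greenhouse.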

corn [2] = test: Test C postemergence; type: in vivo, Zea mays; details: 10 days, 0 to 100 scale (0 no effect, 100 complete control)
Procedure, shortened: as §1

barnyardgrass [3] = test: Test C preemergence; type: in vivo, Echinochloa crusgalli
Procedure, shortened: as §1

wheat [4] = test: Test C preemergence; type: in vivo, Triticum aestivum
Procedure, shortened: as §1

ragweed [5] = test: Test C preemergence; type: in vivo, Ambrosia artemisiifolia
Procedure, shortened: as §1

ryegrass, Italian [6] = test: Test C postemergence; type: in vivo, Lolium multiflorum; details: 10 days, 0 to 100 scale (0 no effect, 100 complete control)
Procedure, shortened: as §1

pigweed, palmer [7] = test: Test C postemergence; type: in vivo, Amaranthus palmeri; details: 10 days, 0 to 100 scale (0 no effect, 100 complete control)
Procedure, shortened: as §1

corn [8] = test: Test C preemergence; type: in vivo, Zea mays
Procedure, shortened: as §1

kochia [9] = test: Test C preemergence; type: in vivo, Bassia scoparia
Procedure, shortened: as §1

oat, wild [10] = test: Test C postemergence; type: in vivo, Avena fatua; details: 10 days, 0 to 100 scale (0 no effect, 100 complete control)
Procedure, shortened: as §1

soybean [11] = test: Test C postemergence; type: in vivo, Glycine max; details: 10 days, 0 to 100 scale (0 no effect, 100 complete control)
Procedure, shortened: as §1

kochia [12] = test: Test C postemergence; type: in vivo, Bassia scoparia; details: 10 days, 0 to 100 scale (0 no effect, 100 complete control)
Procedure, shortened: as §1

oat, wild [13] = test: Test C preemergence; type: in vivo, Avena fatua
Procedure, shortened: as §1

wheat [14] = test: Test C postemergence; type: in vivo, Triticum aestivum; details: 10 days, 0 to 100 scale (0 no effect, 100 complete control)
Procedure, shortened: as §1

barnyardgrass [15] = test: Test D flooded paddy test; type: in vivo, Echinochloa crus-galli; details: 250 g ai/ha, applied to paddy water, visual rating after 13 to 14 days, scale 0 to 100 (0 no effect, 100 complete control)
Procedure, shortened: (§2)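 At the 2-leaf stage, floodwater 3 cm deep received the test compound; that depth persisted throughout. Plants scored visually 13 to 14 days on, 0 (no effect) to 100 (complete control), dash indicating no result.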

ducksalad = test: Test D flooded paddy test; type: in vivo, Heteranthera limosa; details: 250 g ai/ha, applied to paddy water, visual rating after 13 to 14 days, scale 0 to 100 (0 no effect, 100 complete control)
Procedure, shortened: as §2

blackgrass [16] = test: Test C postemergence; type: in vivo, Alopecurus myosuroides; details: 10 days, 0 to 100 scale (0 no effect, 100 complete control)
Procedure, shortened: as §1

soybean [17] = test: Test C preemergence; type: in vivo, Glycine max
Procedure, shortened: as §1

barnyardgrass [18] = test: Test C postemergence; type: in vivo, Echinochloa crusgalli; details: 10 days, 0 to 100 scale (0 no effect, 100 complete control)
Procedure, shortened: as §1

foxtail, giant [19] = test: Test C postemergence; type: in vivo, Setaria faberi; details: 10 days, 0 to 100 scale (0 no effect, 100 complete control)
Procedure, shortened: as §1

pigweed, palmer [20] = test: Test C preemergence; type: in vivo, Amaranthus palmeri
Procedure, shortened: as §1

horseweed = test: Test C postemergence; type: in vivo, Erigeron canadensis; details: 10 days, 0 to 100 scale (0 no effect, 100 complete control)
Procedure, shortened: as §1

sedge, umbrella = test: Test D flooded paddy test; type: in vivo, Cyperus difformis; details: 250 g ai/ha, applied to paddy water, visual rating after 13 to 14 days, scale 0 to 100 (0 no effect, 100 complete control)
Procedure, shortened: as §2

ryegrass, Italian [21] = test: Test C preemergence; type: in vivo, Lolium multiflorum
Procedure, shortened: as §1

foxtail, giant [22] = test: Test C preemergence; type: in vivo, Setaria faberi
Procedure, shortened: as §1

rice = test: Test D flooded paddy test; type: in vivo, Oryza sativa; details: 250 g ai/ha, applied to paddy water, visual rating after 13 to 14 days, scale 0 to 100 (0 no effect, 100 complete control)
Procedure, shortened: as §2

ragweed [23] = test: Test C postemergence; type: in vivo, Ambrosia artemisiifolia; details: 10 days, 0 to 100 scale (0 no effect, 100 complete control)
Procedure, shortened: as §1

galium = test: Test C postemergence; type: in vivo, Galium aparine; details: 10 days, 0 to 100 scale (0 no effect, 100 complete control)
Procedure, shortened: as §1

[24] = 500 g ai/ha, preemergence, 0 to 100 scale (0 no effect, 100 complete control)
[25] = Preemergence, 125 g ai/ha, 0 to 100 scale, 0 no effect, 100 complete control

Structure (SMILES): Cc1ncnn1-c1cc(C(=O)N2CC(C(F)(F)F)Oc3c(Cl)cccc32)ccn1 (racemic) [Compound 333]
- Blackgrass plant response rating (blackgrass [1]; [24]): 0
- Plant response rating, Blackgrass (blackgrass [1]; [25]): 0
- Plant response rating, Corn (corn [2]; 500 g ai/ha, postemergence): 20
- Plant response rating, Corn (corn [2]; Postemergence, 125 g ai/ha): 10
- Barnyardgrass plant response rating (barnyardgrass [3]; [24]): 0
- Plant response rating, Barnyardgrass (barnyardgrass [3]; [25]): 0
- Wheat plant response rating (wheat [4]; [24]): 0
- Plant response rating, Wheat (wheat [4]; [25]): 0
- Ragweed plant response rating (ragweed [5]; [24]): 0
- Plant response rating, Ragweed (ragweed [5]; [25]): 0
- Plant response rating, Ryegrass, Italian (ryegrass, Italian [6]; 500 g ai/ha, postemergence): 10
- Plant response rating, Ryegrass, Italian (ryegrass, Italian [6]; Postemergence, 125 g ai/ha): 0
- Plant response rating, Pigweed, Palmer (pigweed, palmer [7]; 500 g ai/ha, postemergence): 20
- Plant response rating, Pigweed, Palmer (pigweed, palmer [7]; Postemergence, 125 g ai/ha): 0
- Corn plant response rating (corn [8]; [24]): 0
- Plant response rating, Corn (corn [8]; [25]): 0
- Kochia plant response rating (kochia [9]; [24]): 10
- Plant response rating, Kochia (kochia [9]; [25]): 0
- Plant response rating, Oat, Wild (oat, wild [10]; 500 g ai/ha, postemergence): 0
- Plant response rating, Oat, Wild (oat, wild [10]; Postemergence, 125 g ai/ha): 0
- Plant response rating, Soybean (soybean [11]; 500 g ai/ha, postemergence): 50
- Plant response rating, Soybean (soybean [11]; Postemergence, 125 g ai/ha): 50
- Plant response rating, Kochia (kochia [12]; 500 g ai/ha, postemergence): 50
- Plant response rating, Kochia (kochia [12]; Postemergence, 125 g ai/ha): 30
- Oat, Wild plant response rating (oat, wild [13]; [24]): 0
- Plant response rating, Oat, Wild (oat, wild [13]; [25]): 0
- Plant response rating, Wheat (wheat [14]; 500 g ai/ha, postemergence): 10
- Plant response rating, Wheat (wheat [14]; Postemergence, 125 g ai/ha): 10
- Plant response rating, Barnyardgrass (Flood) (barnyardgrass [15]): 0
- Plant response rating, Ducksalad (Flood) (ducksalad): 0
- Plant response rating, Blackgrass (blackgrass [16]; 500 g ai/ha, postemergence): 20
- Plant response rating, Blackgrass (blackgrass [16]; Postemergence, 125 g ai/ha): 0
- Soybean plant response rating (soybean [17]; [24]): 0
- Plant response rating, Soybean (soybean [17]; [25]): 0
- Plant response rating, Barnyardgrass (barnyardgrass [18]; 500 g ai/ha, postemergence): 10
- Plant response rating, Barnyardgrass (barnyardgrass [18]; Postemergence, 125 g ai/ha): 10
- Plant response rating, Foxtail, Giant (foxtail, giant [19]; 500 g ai/ha, postemergence): 40
- Plant response rating, Foxtail, Giant (foxtail, giant [19]; Postemergence, 125 g ai/ha): 20
- Pigweed, Palmer plant response rating (pigweed, palmer [20]; [24]): 30
- Plant response rating, Pigweed, Palmer (pigweed, palmer [20]; [25]): 0
- Plant response rating, Horseweed (horseweed; 500 g ai/ha, postemergence): 0
- Plant response rating, Horseweed (horseweed; Postemergence, 125 g ai/ha): 0
- Plant response rating, Sedge, Umbrella (Flood) (sedge, umbrella): 0
- Ryegrass, Italian plant response rating (ryegrass, Italian [21]; [24]): 40
- Plant response rating, Ryegrass, Italian (ryegrass, Italian [21]; [25]): 30
- Foxtail, Giant plant response rating (foxtail, giant [22]; [24]): 80
- Plant response rating, Foxtail, Giant (foxtail, giant [22]; [25]): 0
- Plant response rating, Rice (Flood) (rice): 0
- Plant response rating, Ragweed (ragweed [23]; 500 g ai/ha, postemergence): 10
- Plant response rating, Ragweed (ragweed [23]; Postemergence, 125 g ai/ha): 0
- Plant response rating, Galium (galium; 500 g ai/ha, postemergence): 60
- Plant response rating, Galium (galium; Postemergence, 125 g ai/ha): 0
